Results published in PubChem BioAssay AID2305 (GlaxoSmithKline (GSK), 2010).
Values joined by “and” are separate entries in the source; they are usually repeats but may differ in a detail not shown here. Equal entries are not always repeated.

System: P. falciparum 3D7 growth, pLDH absorbance
Assay: P. falciparum 3D7 growth inhibition, dose response, strain 3D7 (AID 2305)

Row | Compound | IC50
1 | C=CC[C@H](NC(=O)c1ccc(NS(=O)(=O)c2ccc3nc(N)[nH]c(=O)c3c2)cc1)C(=O)OCCCC | 150 nM
2 | COc1cc(-n2cnc3cc(-c4ccc([N+](=O)[O-])cc4)sc3c2=O)ccc1OCCN1CCCC1 | 780 nM
3 | CN(C)c1ccc(-c2nc3ccc(N)cc3[nH]2)cc1 | 240 nM
4 | C/C=C/C=C/C1=NCCc2cc(OCCC)ccc21 | 910 nM
5 | CC(C)CCN1CCCN(Cc2cccc(C(=O)Nc3ccc(C(C)(C)C)cc3)c2)CC1 | 1100 nM
6 | Fc1ccc(Nc2ccnc3cc(-c4ccc(CN5CCOCC5)o4)ccc23)c(Cl)c1 | 760 nM
7 | OCC1CCN(Cc2ccc(-c3ccc(-c4nc5ccc(F)cc5[nH]4)s3)cc2)CC1 | 850 nM
8 | O=C(C=Cc1ccc(Cl)c(Cl)c1)NCCCCCN1CCCC(CCCNS(=O)(=O)c2cccc(C(F)(F)F)c2)C1 (centres undefined) | 960 nM
9 | FC(F)(F)c1ccc2nccc(NN=Cc3ccc(Cl)cc3)c2c1 | 790 nM
10 | N[C@@H](CCN1CCC(c2cccc(O)c2)CC1)Cc1ccc(F)c(F)c1 | 1110 nM
11 | CCC[C@@H]([C@@H](CC1CCCCC1)C(=O)N[C@@H](CCCCNS(C)(=O)=O)C(=O)Nc1nccs1)N(O)C=O | 80 nM
12 | Cc1cc(NN=Cc2ccc(Cl)cc2)c2cc(C(F)(F)F)ccc2n1 | 920 nM
13 | CCCCN(C(=O)c1ccccc1C)c1nnc(-c2ccccc2C)s1 | 930 nM
14 | Cc1ccc2[nH]c3c(c2c1)CC(C(=O)NCCC(C)C)NC31CCN(Cc2ccccc2)CC1 (centres undefined) | 930 nM
15 | CCN(CC)CCN(Cc1ccc(-c2ccc(C(F)(F)F)cc2)cc1)C(=O)Cn1c(CCc2cccc(F)c2F)nc(=O)c2ccc(C(F)(F)F)cc21 | 780 nM
16 | CC(=O)Nc1ccc(CN(Cc2ccc(C)cc2)Cc2cccc(Oc3ccccc3)c2)cc1 | 1050 nM
17 | CCOC(=O)c1c(NC(=O)c2ccccc2)sc2c(O)c(CN(CC)CC)ccc12 | 970 nM
18 | NC(=O)N1CCN(Cc2ccc(Br)cc2)CC1 | 620 nM
19 | CON(CCCN(C)C)C(=N)N | 1080 nM
20 | CC(C)CNCc1cccc(-c2ccc(CN(C(=O)Nc3ccccc3)C3CCN(Cc4ccccc4)CC3)cc2)c1 | 480 nM
21 | CN(C)c1ccc(CN2CCC(NC(=O)c3ccc(-c4cccc(Cl)c4)s3)CC2)cc1 | 920 nM
22 | COc1ccc(Nc2nc(NN=Cc3cc(Br)ccc3O)nc(Nc3ccc([N+](=O)[O-])cc3)n2)cc1 | 220 nM
23 | CC(C)NC(=O)c1cccc(-c2ccc(OCCN3CCCC3c3cc4ccccc4[nH]3)cc2)c1 (centres undefined) | 960 nM
24 | C=CCc1c(C(=O)NCC23CC4CC(CC(C4)C2)C3)[nH]c2ccccc2c1=O | 1030 nM
25 | Clc1ccc(-c2ccc(C=NNc3nc(Nc4ccccc4)nc(Nc4ccccc4)n3)o2)cc1Cl | 740 nM

Row | Compound | IC50
26 | O=C1C(c2ccccc2)=C(Nc2ccc([N+](=O)[O-])cc2)c2ccccc21 | 870 nM
27 | Cc1ccc2c(NN=Cc3cccc(F)c3)cc(C)nc2c1 | 860 nM
28 | COc1ccc(CNc2nc(NCc3ccccc3)c3cc(OC)c(OC)cc3n2)cc1OC | 540 nM
29 | c1cc(CNCCN2CCNCC2)cc(-c2cccc(-c3nc4ccccc4[nH]3)c2)c1 | 960 nM
30 | CC1CN(Cc2ccccc2)CCN1c1ccc(NC(=O)c2cccs2)cc1 (centres undefined) | 280 nM
31 | Cc1cc(N[C@@H](CC(C)C)C(=O)NCCOc2ccccc2)nc(NCCOc2ccccc2)n1 | 1490 nM
32 | CCCCCCNC(=O)C(N)CCCC(N)C(=O)NCCCCCC (centres undefined) | 160 nM
33 | O=C1CCCN1CCCNCc1ccc(-c2cccc(-c3nc4ccccc4[nH]3)c2)cc1 | 1020 nM
34 | O=C(Nc1ccc(-c2nc3ccccc3[nH]2)cc1)c1ccc(N2CCOCC2)c([N+](=O)[O-])c1 | 790 nM
35 | CC[C@H](NC(=O)c1c(CC2CCN(CC(C)=O)CC2)c(-c2ccccc2)nc2ccccc12)c1ccccc1 | 380 nM
36 | COc1ccc(C2CCN(CCCCNC(=O)c3ccc(NC(=O)c4ccc(Cl)cc4)cc3)CC2)cc1Cl | 840 nM
37 | O=C(/C=C/c1ccc(Cl)c(Cl)c1)NCCCCCN1CCC(NC(=O)NC2CCCCC2)CC1 | 560 nM
38 | C[C@@H](CC1CCCCC1)NCc1cccc(NS(=O)(=O)c2ccc(O)c(-c3ccno3)c2)c1 | 380 nM
39 | c1ccc(N2CCN(c3cc(-c4cccnc4)nc(-c4ccncc4)n3)CC2)nc1 | 760 nM
40 | COc1ccc2nccc(N3CCN(CCNCc4ccc5c(n4)NC(=O)CO5)CC3)c2n1 | 880 nM
41 | O=C(N[C@@H](Cc1cc(F)cc(F)c1)[C@H](O)CNCc1cccc(C(F)(F)F)c1)c1cc(C2CCCC2)cc(N2CCCC2=O)c1 | 800 nM
42 | C=Cc1ccc(-c2c(C)[nH]c(C)c(Br)c2=O)cc1 | 560 nM
43 | O=C(Nc1ccc(-c2cccc(-c3nc4ccc(F)cc4[nH]3)c2)cc1)Nc1ccc(F)c(F)c1F | 740 nM
44 | CN(C(=O)C1(c2ccc(Cl)cc2)CC1)C1CCN(CCCCCNC(=O)/C=C/c2ccc(Cl)c(Cl)c2)CC1 | 770 nM
45 | COc1ccc(CN2CCN(Cc3cc(Cl)ccc3O)CC2CCO)c(C)c1C (centres undefined) | 1490 nM
46 | Cc1cc(NC(=O)c2sc3ccccc3c2O)no1 | 810 nM
47 | CNc1nc(NN=Cc2cc([N+](=O)[O-])c(Cl)cc2Cl)nc(Nc2cccc(C(F)(F)F)c2)n1 | 730 nM
48 | Fc1cccc(COc2ccc(Nc3ncnc4sc(C#CCNC5CCC5)cc34)cc2Cl)c1 | 870 nM
49 | CCC(=O)Nc1nnc(Cc2ccc(OC)c(OC)c2)s1 | 910 nM
50 | COc1ccc(CCNCCCCCCNCCc2ccccc2Cl)cc1OC | 660 nM

Row | Compound | IC50
51 | COc1ccc2nccc(NN=Cc3cccnc3)c2c1 | 500 nM
52 | Nc1c2ccccc2nc2ccc(Cl)cc12 | 810 nM
53 | CN1CCN(CC(=O)Nc2cccc(-c3ccc(-c4nc5ccc(C(F)(F)F)cc5[nH]4)cc3)c2)CC1 | 520 nM
54 | Cc1ccc(NC(C)C(=O)Nc2ccccc2)cc1S(=O)(=O)N1CCCCCC1 (centres undefined) | 60 nM
55 | Fc1cccc(Nc2nc(NCc3ccc(Cl)c(Cl)c3)nc(Nc3cccc(F)c3)n2)c1 | 750 nM
56 | COc1cc(Cc2cnc(N)nc2N)cc(OCCCOc2ccccc2)c1OC | 1080 nM
57 | c1ccc2c(NCCOCCNc3c4ccccc4nc4ccccc34)c3ccccc3nc2c1 | 880 nM
58 | FC(F)(F)COc1ccc2ccccc2c1CCNCCCCNCCc1c(OCC(F)(F)F)ccc2ccccc12 | 430 nM
59 | CCN(CC)CCN(Cc1ccc(-c2ccc(C(F)(F)F)cc2)cc1)C(=O)Cn1cc(CCCc2cccc(F)c2F)c(=O)c2ccccc21 | 1060 nM
60 | Cc1[nH]n(-c2cccc(Cl)c2)c(=O)c1-c1ccc(Cl)cc1 | 930 nM
61 | CN1CCN(c2ccc(Nc3c4ccccc4nc4ccccc34)cc2)CC1 | 640 nM
62 | C[C@@H](C(N)=O)N1CCCCC1c1ccc(OCc2cccc(F)c2)cc1 (some centres undefined) | 990 nM
63 | O=C(CCc1cnc[nH]1)Nc1ccc(-c2cccc(-c3nc4ccccc4[nH]3)c2)cc1 | 350 nM
64 | CCN(CC)c1nc(N)c2c(N)nc3c(c2c1C#N)C(=O)CN3Cc1ccccc1 | 70 nM
65 | CCCCN=C(N)Nc1ccc(OCCCOc2ccc(NC(N)=NCCCC)cc2)cc1 | 160 nM
66 | OC(CNC1CCCCCCC1)c1ccc(Cl)c(Cl)c1 (centres undefined) | 210 nM
67 | O=[N+]([O-])c1ccc2nccnc2c1 | 1070 nM
68 | CN(C)c1ccc(-c2ccc(C(=O)NC3CCN(Cc4cccc(C(F)(F)F)c4)CC3)s2)cc1 | 990 nM
69 | COc1ccc(-c2cc(C(=O)N[C@@H](CC3CCCCC3)C(=O)NC3CCCc4ccccc43)ccc2O)cc1 (some centres undefined) | 690 nM
70 | O=C(Nc1ccc(-c2cccc(-c3nc4ccc(C(F)(F)F)cc4[nH]3)c2)cc1)c1ccc(=O)[nH]n1 | 1070 nM
71 | Cc1c(C)c2c(c(C)c1O)CC[C@](C)(C(=O)NC1CCC(CN3CCC(c4c[nH]c5ccccc45)CC3)CC1)O2 (some centres undefined) | 880 nM and 1120 nM
72 | CCN(CC)CCNC(=O)c1ccc(NC(=O)c2ccc(-c3cc(NC(=O)CC4CCCC4)ccc3C)cc2)cc1 | 560 nM
73 | CCCc1cc(OC)c(CC2c3cccc(O)c3CCN2C)cc1OC (centres undefined) | 300 nM
74 | CCC[C@]1(C)CSc2ccccc2[C@@H](c2ccccc2)N1 | 710 nM
75 | CCN(CCCN1CCCCC1)c1cc(C)nc(Nc2ccc(C)c(Br)c2)n1 | 250 nM

Row | Compound | IC50
76 | O=C(NCCC1CCN(CCc2c[nH]c3ccccc23)CC1)Nc1ccc(Cl)c(Cl)c1 | 830 nM
77 | CC[C@H]1CN2CC[C@@H]1C[C@@H]2[C@@H](O)c1cc(-c2ccc(F)cc2)nc2ccc(OC)cc12 | 110 nM
78 | O=C(/C=C/c1ccc(Cl)c(Cl)c1)NCCCCCCN1CCN(C(=O)Nc2cc(F)cc(F)c2)CC1 | 1070 nM
79 | O=C(Nc1cccc(CN2CCCN(CC3CC3)CC2)c1)c1ccc(Cl)c(Cl)c1 | 1030 nM
80 | Fc1cccc(COc2ccc(Nc3ncnc4sc(C#C[C@H]5CCCN5)cc34)cc2F)c1 | 870 nM
81 | Cc1cc(CNCCCCCNCc2ccc(Cl)cc2)ccc1O | 710 nM
82 | O=C(Nc1ccc2c(c1)CCN(C1CCC1)CC2)c1ccc(-n2ccnc2)cn1 | 370 nM
83 | CCN(CC)CC(O)CNc1c2ccc([N+](=O)[O-])cc2nc2cc(OC)c(OC)cc12 (centres undefined) | 270 nM
84 | c1cncc(-c2cccc(CNc3nccc(Nc4ccc(OCCN5CCOCC5)cc4)n3)c2)c1 | 1060 nM
85 | CC(=O)Nc1ccc(CN2CCC(NC(=O)c3ccc(-c4cccc(Cl)c4)s3)CC2)cc1 | 790 nM
86 | COc1ccc2ccc(F)c(CC(=O)N3CCOC(CNCc4cccc(-c5ccsc5)n4)C3)c2n1 (centres undefined) | 1170 nM
87 | CC(=O)N(Cc1ccc(CC(C)NCCc2cccc(Cl)c2)cc1)Cc1ccc(CC(C)NCCc2cccc(Cl)c2)cc1 (centres undefined) | 780 nM
88 | Cc1nc(-c2ccc(C(F)(F)F)cn2)sc1C(=O)N1CCc2cc3nccc(N4CCN5CCC[C@H]5C4)c3cc21 | 780 nM
89 | Cn1cncc1-c1ccc2ncnc(Nc3ccc(OCc4ccccc4)cc3)c2c1 | 1340 nM
90 | CC(=O)Nc1ccc(OCCN(Cc2ccccc2C(F)(F)F)c2ccc(C#N)c(C(F)(F)F)c2)cc1 | 440 nM
91 | CS(=O)(=O)c1ccc2nc(-c3cc(-c4ccc(OCCN5CCOCC5)cc4)cnc3N)[nH]c2c1 | 1060 nM
92 | N#Cc1cccc(C(=O)Nc2ccc(-c3nc4ccccc4[nH]3)cc2)c1 | 540 nM
93 | CCN1CCC(N(Cc2ccc(-c3ccc(C(F)(F)F)cc3)cc2)C(=O)Cn2c(CCc3cccc(F)c3F)nc(=O)c3ccccc32)CC1 | 1060 nM
94 | O=C(/C=C/c1ccc(Cl)c(Cl)c1)NCCCCCN1CCC(NC(=O)Nc2ccc(Cl)cc2F)CC1 | 310 nM
95 | CC(C)CNC(=O)c1cncc(-c2ccc(CN3CCC(N4CCCC4)CC3)cc2)c1 | 690 nM
96 | Cn1c(NCc2cc(F)cc3c2OCOC3)nc2cc(Nc3ccnc(Nc4cccc(CS(C)(=O)=O)c4)n3)ccc21 | 150 nM
97 | O=S(=O)(NCCN1CCCC1)c1ccc(-c2cccc(CNC3Cc4ccccc4C3)c2)s1 | 750 nM
98 | NOCCCCOc1cc(Cl)c(Cl)cc1Cl | 170 nM
99 | Cc1ccc(Nc2cc(C)nn2-c2nc(C)cc(=O)[nH]2)cc1 | 860 nM
